Results as given in patent US10760052B2, “Method of inhibiting tau phosphorylation” (priority 2012, dated 2020).
Read-outs that look alike come from different tables or passages of the source.

Target: T1, mu opiate receptor (MOR) (Rattus norvegicus, UniProt P33535)
T1 construct: from tissue; host or cells: striatum (membrane preparation)
Format: biochemical

[1] = [35S]GTPγS binding to Gαo in striatal membranes, compound 0.1 μM
[2] = [35S]GTPγS binding to Gαo in striatal membranes, compound 1 μM
[3] = [35S]GTPγS binding to Gαo in striatal membranes, compound 1 μM plus 1 μM β-funaltrexamine (MOR antagonist)

T1 sequence (P33535 whole entry): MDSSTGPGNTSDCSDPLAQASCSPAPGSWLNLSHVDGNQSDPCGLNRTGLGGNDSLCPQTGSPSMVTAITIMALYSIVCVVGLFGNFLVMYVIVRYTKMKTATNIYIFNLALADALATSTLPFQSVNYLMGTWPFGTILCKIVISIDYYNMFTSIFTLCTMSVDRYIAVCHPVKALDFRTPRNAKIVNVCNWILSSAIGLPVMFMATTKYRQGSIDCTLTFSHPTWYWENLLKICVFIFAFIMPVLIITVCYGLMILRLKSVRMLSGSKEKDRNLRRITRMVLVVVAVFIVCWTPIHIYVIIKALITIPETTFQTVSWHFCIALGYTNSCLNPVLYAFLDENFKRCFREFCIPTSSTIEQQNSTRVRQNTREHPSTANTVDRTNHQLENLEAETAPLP

Compound	% DAMGO (0.1 μM) [%]	% DAMGO (1 μM) [%]	% DAMGO + BFNA [%]	Concentration of FLNA-Binding Compound as Agonist 0.1 μM [1] [%]	Concentration of FLNA-Binding Compound as Agonist 1 μM [2] [%]	Concentration of FLNA-Binding Compound as Agonist 1 μM + BFNA [3] [%]	Concentration of FLNA-Binding Compound as Agonist 0.1 μM [%]	Concentration of FLNA-Binding Compound as Agonist 1 μM [%]	Concentration of FLNA-Binding Compound as Agonist 1 μM + BFNA [%]	[35S]GTPγS binding, FLNA-Binding Compound as Agonist at 0.1 μM [%]	[35S]GTPγS binding, FLNA-Binding Compound as Agonist at 1 μM [%]	[35S]GTPγS binding, FLNA-Binding Compound as Agonist at 1 μM + BFNA [%]
O=S(=O)(c1cccc(OC(F)(F)F)c1)N1CCC2(CC1)OCCN2S(=O)(=O)c1cccc(OC(F)(F)F)c1 [Compound C0005]	105.4	85.1	319.4	180.4	227.2	166.4	–	–	–	–	–	–
O=S(=O)(c1ccc(OC(F)(F)F)cc1)N1CCC2(CC1)OCCN2S(=O)(=O)c1ccc(OC(F)(F)F)cc1 [Compound C0006]	70.6	73.8	7.2	121.5	204.0	4.6	–	–	–	–	–	–
CC(C)c1ccc(S(=O)(=O)N2CCC3(CC2)OCCN3S(=O)(=O)c2ccc(C(C)C)cc2)cc1 [Compound C0007]	46.0	70.5	17.0	79.1	195.0	10.9	–	–	–	–	–	–
N#Cc1ccc(S(=O)(=O)N2CCC3(CC2)OCCN3S(=O)(=O)c2ccc(C#N)cc2)cc1 [Compound C0008]	41.4	72.9	4.4	71.2	201.6	2.8	–	–	–	–	–	–
CS(=O)(=O)c1ccc(S(=O)(=O)N2CCC3(CC2)OCCN3S(=O)(=O)c2ccc(S(C)(=O)=O)cc2)cc1 [Compound C0009]	85.1	92.6	41.2	146.3	256.2	26.4	–	–	–	–	–	–
O=S(=O)(c1ccc(-c2ccccc2)cc1)N1CCC2(CC1)OCCN2S(=O)(=O)c1ccc(-c2ccccc2)cc1 [Compound C0010]	80.7	114.9	135.0	136.5	307.0	89.1	–	–	–	–	–	–
CC(=O)c1ccc(S(=O)(=O)N2CCC3(CC2)OCCN3S(=O)(=O)c2ccc(C(C)=O)cc2)cc1 [Compound C0011]	126.8	114.3	36.5	–	–	–	217.0	305.0	19.0	217.0	305.0	19.0
O=S(=O)(c1ccc(C(F)(F)F)cc1)N1CCC2(CC1)OCCN2S(=O)(=O)c1ccc(C(F)(F)F)cc1 [Compound C0012]	54.8	86.7	280.7	96.8	224.8	184.4	–	–	–	–	–	–
CC(=O)Nc1ccc(S(=O)(=O)N2CCC3(CC2)OCCN3S(=O)(=O)c2ccc(NC(C)=O)cc2)cc1 [Compound C0013]	91.0	108.9	61.8	156.6	301.2	39.6	–	–	–	–	–	–
Cc1cccc(S(=O)(=O)N2CCC3(CC2)OCCN3S(=O)(=O)c2cccc(C)c2)c1 [Compound C0014]	82.0	59.2	116.1	144.9	153.5	76.3	–	–	–	–	–	–
